We go through 22 compounds from patent US20250122465A1 (priority 2023, published 2025).

Like-named read-outs stand apart in the source and are kept apart here.

The test system of one test is STRAIN-1. The experiment in a line: Spore activation rate by phase-contrast microscopy, STRAIN-1. The class given is cell-based, Bacillus.
Test [1] has as its system Clostridium perfringens type A and G strains. The conditions noted are these: combined with taurocholate; cited from earlier work.
Where [2] appears, read: Example 1, individual amino acid at its Table 1 amount (0.08-500 g/L), 42° C., 1 hour.
Where [3] appears, read: Example 1, individual amino acid at its Table 1 amount (0.08-500 g/L), 42° C., 24 hours.

Take `NCC(=O)O` [Glycine]: the “Activation Rate (%) at 1 hr.” value in the test on STRAIN-1 (setting [2]) turned out to be 0%. For the same compound, in the test on STRAIN-1 (setting [3]), the “Activation Rate (%) at 24 hrs.” value stood at 0%.
For the compound `OC[C@H]1O[C@@H](n2cnc3c(O)ncnc32)[C@H](O)[C@@H]1O` [Inosine], the “Activation Rate (%) at 1 hr.” value in the test with STRAIN-1 (setting [2]) was found to be 0%. Also, in the test on STRAIN-1 (setting [3]), the “Activation Rate (%) at 24 hrs.” value was 0%.
In the case of `C[N+](C)(C)C[C@H](O)CC(=O)[O-]` [L Carnitine], in the test with STRAIN-1, the “Activation Rate (%) at 1 hr.” value was found to be 0% and the “Activation Rate (%) at 24 hrs.” value amounted to 0%.
Consider `N=C(N)NCCC[C@H](N)C(=O)O` [L-Arginine], for which, in the test with STRAIN-1 (setting [2]), the “Activation Rate (%) at 1 hr.” value is listed as 0%. Moreover, in the test on STRAIN-1 (setting [3]), the “Activation Rate (%) at 24 hrs.” value came out at 0%.
As to `N[C@@H](CC(=O)O)C(=O)O` [L-Aspartic acid], the “Activation Rate (%) at 1 hr.” value with STRAIN-1 (setting [2]) worked out at 0%. Further, in the test on STRAIN-1 (setting [3]), the “Activation Rate (%) at 24 hrs.” value is recorded as 0%.
As to `N[C@@H](CS)C(=O)O` [L-Cysteine], the “Activation Rate (%) at 1 hr.” value in the test on STRAIN-1 (setting [2]) came out at 0%. Further, the “Activation Rate (%) at 24 hrs.” value with STRAIN-1 (setting [3]) turned out to be 0%.
For `N[C@@H](CSSC[C@H](N)C(=O)O)C(=O)O` [L-Cystine], in the test with STRAIN-1 (setting [2]), the “Activation Rate (%) at 1 hr.” value was found to be 0%. In addition, the “Activation Rate (%) at 24 hrs.” value in the test with STRAIN-1 (setting [3]) was found to be 0%.
In the case of `N[C@@H](CCC(=O)O)C(=O)O` [L-Glutamic acid], the “Activation Rate (%) at 1 hr.” value in the test with STRAIN-1 (setting [2]) is on record as 0%. Further, in the test with STRAIN-1 (setting [3]), the “Activation Rate (%) at 24 hrs.” value turned out to be 0%.
For the compound `NC(=O)CC[C@H](N)C(=O)O` [L-Glutamine], the “Activation Rate (%) at 1 hr.” value with STRAIN-1 (setting [2]) was determined as 0%. In the test with STRAIN-1 (setting [3]), the “Activation Rate (%) at 24 hrs.” value is 0%.
For `N[C@@H](Cc1c[nH]cn1)C(=O)O` [L-Histidine], the “Activation Rate (%) at 1 hr.” value in the test on STRAIN-1 (setting [2]) amounted to 0%. In addition, the “Activation Rate (%) at 24 hrs.” value with STRAIN-1 (setting [3]) was found to be 0%.
As to `CC[C@H](C)[C@H](N)C(=O)O` [L-Isoleucine], the “Activation Rate (%) at 24 hrs.” value in the test on STRAIN-1 (setting [3]) is 99 +/− 0%; with STRAIN-1 (Example 1, individual amino acid at its Table 1 amount (0.08-500 g/L), 42° C., 24 hours, listed as L-isoleucine), 99%.
Consider `CC(C)C[C@H](N)C(=O)O` [L-Leucine], for which the “Activation Rate (%) at 24 hrs.” value in the test on STRAIN-1 is given as “zero”; with STRAIN-1 (setting [3]), 0%. Also, in the test on STRAIN-1 (setting [2]), the “Activation Rate (%) at 1 hr.” value was found to be 0%.
Consider `NCCCC[C@H](N)C(=O)O` [L-Lysine], for which, in the test on STRAIN-1, the “Activation Rate (%) at 1 hr.” value was found to be 0% and the “Activation Rate (%) at 24 hrs.” value worked out at 0%.
For the compound `CSCC[C@H](N)C(=O)O` [L-Methionine], the “Activation Rate (%) at 1 hr.” value in the test on STRAIN-1 (setting [2]) amounted to 0%. The “Activation Rate (%) at 24 hrs.” value in the test on STRAIN-1 (setting [3]) was found to be 0%.
On to `N[C@@H](Cc1ccccc1)C(=O)O` [L-Phenylalanine], for which, in the test with STRAIN-1 (setting [2]), the “Activation Rate (%) at 1 hr.” value was found to be 0%. In addition, in the test with STRAIN-1 (setting [3]), the “Activation Rate (%) at 24 hrs.” value was determined as 0%.
For `O=C(O)[C@@H]1CCCN1` [L-Proline], the “Activation Rate (%) at 1 hr.” value with STRAIN-1 (setting [2]) was 0%. Further, the “Activation Rate (%) at 24 hrs.” value in the test with STRAIN-1 (setting [3]) is 0%.
On to `N[C@@H](CO)C(=O)O` [L-Serine], for which the “Activation Rate (%) at 1 hr.” value with STRAIN-1 (setting [2]) turned out to be 0%. Also, the “Activation Rate (%) at 24 hrs.” value in the test on STRAIN-1 (setting [3]) was found to be 0%.
Take `C[C@@H](O)[C@H](N)C(=O)O` [L-Threonine]: the “Activation Rate (%) at 1 hr.” value in the test with STRAIN-1 (setting [2]) is 0%. Besides, the “Activation Rate (%) at 24 hrs.” value in the test on STRAIN-1 (setting [3]) is listed as 0%.
`N[C@@H](Cc1c[nH]c2ccccc12)C(=O)O` [L-Tryptophan]: in the test with STRAIN-1 (setting [2]), the “Activation Rate (%) at 1 hr.” value worked out at 0%. For the same compound, in the test on STRAIN-1 (setting [3]), the “Activation Rate (%) at 24 hrs.” value came to 0%.
For `N[C@@H](Cc1ccc(O)cc1)C(=O)O` [L-Tyrosine], the “Activation Rate (%) at 1 hr.” value with STRAIN-1 (setting [2]) is given as 0%. Further, the “Activation Rate (%) at 24 hrs.” value with STRAIN-1 (setting [3]) came out at 0%.
Consider `CC(C)[C@H](N)C(=O)O` [L-Valine], for which the “Activation Rate (%) at 1 hr.” value with STRAIN-1 is reported as “did not result in any activation”; in the test with STRAIN-1 (setting [2]), 0%. For the same compound, the “Activation Rate (%) at 24 hrs.” value was 95 +/− 0% in the test on STRAIN-1 (setting [3]) and 95% in the test with STRAIN-1 (Example 1, individual amino acid at its Table 1 amount (0.08-500 g/L), 42° C., 24 hours, listed as L-valine).
`C[C@H](N)C(=O)O` [L-alanine]: in test [1], the spore germination induced entry was “approximately 50%”.
